The target of test [1] is T1, HCV polymerase 1B (Δ21 NS5B, BK) (Hepatitis C virus genotype 1b, UniProt P26663).
T1 construct: 20 to 50 nM Δ21 NS5B
Briefly: biochemical. The method, then:
(§1) HCV Polymerase Inhibition Assay
(§2) Either two-fold serial dilutions (fractional inhibition assay) or a narrower range of dilutions spanning the IC50 of the inhibitor (tight binding assay) of the inhibitors were incubated with 20 mM Tris-Cl pH 7.4, 2 mM MnCl2, 1 mM dithiothreitol, 1 mM ethylene diamine tetraacetic acid (EDTA), 60 to 125 μM GTP and 20 to 50 nM Δ21 NS5B (HCV Strain 1B (BK, Genbank accession number M58335, or H77, Genbank accession number AF011751)) for 15 min at room temperature. The reaction was initiated by the addition of 20 μM CTP, 20 μM ATP, 1 μM ^3H-UTP (10 mCi/umol), 5 nM template RNA and 0.1 U/μl RNase inhibitor (RNasin, Promega), and allowed to proceed for 2 to 4 h at room temperature. Reaction volume was 50 μl. The reaction was terminated by the addition of 1 volume of 4 mM spermine in 10 mM Tris-Cl pH 8.0, 1 mM EDTA. After incubation for at least 15 min at room temperature, the precipitated RNA was captured by filtering through a GF/B filter (Millipore) in a 96 well format. The filter plate was washed three times with 200 μl each of 2 mM spermine, 10 mM Tris-Cl pH 8.0, 1 mM EDTA, and 2 times with ethanol. After air-drying, 30 μl of Microscint 20 scintillation cocktail (Packard) was added to each well, and the retained cpm were determined by scintillation counting. […] Retained cpm were plotted vs. inhibitor concentration and fit to equation 1 using non-linear regression (ref. 1) to obtain the IC50 values: Retained cpm=A[sqrt{(IC50+It−Et)^2+4*IC50*Et}−(IC50+It−Et)]
Ref. Morrison, J. F. and S. R. Stone. 1985. Approaches to the study and analysis of the inhibition of enzymes by slow- and tight-binding inhibitors. Comments Mol. Cell. Biophys. 2: 347-368.
The sequence of the template RNA used was: 5′-[…] […] […] […] […] […] […] […] […] […] […] […] […] […] […] […] […]-3′ (SEQ ID NO: 1)

For test [2], the target named is T2, HCV polymerase 1A (Δ21 NS5B, H77) (Hepatitis C virus genotype 1a, UniProt P27958).
T2 construct: 20 to 50 nM Δ21 NS5B
Put plainly: biochemical. The following applies: IC50 1a. As for the experimental part: as §1
as §2, with “The” for “Either two-fold serial dilutions (fractional inhibition assay) or a narrower range of dilutions spanning the IC50 of the inhibitor (tight binding assay) of the inhibitors were incubated with 20 mM Tris-Cl pH 7.4, 2 mM MnCl2, 1 mM dithiothreitol, 1 mM ethylene diamine tetraacetic acid (EDTA), 60 to 125 μM GTP and 20 to 50 nM Δ21 NS5B (HCV Strain 1B (BK, Genbank accession number M58335, or H77, Genbank accession number AF011751)) for 15 min at room temperature. The”
Ref. Morrison, J. F. and S. R. Stone. […] Approaches to the study and analysis of the inhibition of enzymes by slow- and tight-binding inhibitors. Comments Mol. Cell. Biophys.
The sequence of the template RNA used was: 5′-[…]

The structures appear in SMILES notation. Where only a bound is given, the exact number is not on record here.

The term IC50 denotes the concentration that gives 50% inhibition. Lower therefore signals greater potency in that assay.

T2 sequence (P27958 2421-2990, stated change not applied): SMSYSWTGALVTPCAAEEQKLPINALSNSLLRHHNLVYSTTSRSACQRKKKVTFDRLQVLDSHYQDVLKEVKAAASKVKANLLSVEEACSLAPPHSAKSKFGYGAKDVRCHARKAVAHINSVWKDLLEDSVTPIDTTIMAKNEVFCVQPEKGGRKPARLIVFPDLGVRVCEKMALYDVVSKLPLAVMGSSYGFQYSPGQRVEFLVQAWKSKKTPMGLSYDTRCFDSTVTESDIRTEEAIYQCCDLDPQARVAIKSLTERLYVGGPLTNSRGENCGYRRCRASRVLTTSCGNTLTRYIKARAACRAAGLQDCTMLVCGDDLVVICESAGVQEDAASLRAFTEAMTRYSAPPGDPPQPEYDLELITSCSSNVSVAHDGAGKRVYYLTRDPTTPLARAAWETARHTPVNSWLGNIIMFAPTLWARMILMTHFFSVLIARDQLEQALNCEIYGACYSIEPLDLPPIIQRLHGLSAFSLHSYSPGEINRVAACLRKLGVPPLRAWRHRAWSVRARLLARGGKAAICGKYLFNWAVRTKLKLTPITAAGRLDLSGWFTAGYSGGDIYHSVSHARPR
T1 sequence (P26663 2420-2989, stated change not applied): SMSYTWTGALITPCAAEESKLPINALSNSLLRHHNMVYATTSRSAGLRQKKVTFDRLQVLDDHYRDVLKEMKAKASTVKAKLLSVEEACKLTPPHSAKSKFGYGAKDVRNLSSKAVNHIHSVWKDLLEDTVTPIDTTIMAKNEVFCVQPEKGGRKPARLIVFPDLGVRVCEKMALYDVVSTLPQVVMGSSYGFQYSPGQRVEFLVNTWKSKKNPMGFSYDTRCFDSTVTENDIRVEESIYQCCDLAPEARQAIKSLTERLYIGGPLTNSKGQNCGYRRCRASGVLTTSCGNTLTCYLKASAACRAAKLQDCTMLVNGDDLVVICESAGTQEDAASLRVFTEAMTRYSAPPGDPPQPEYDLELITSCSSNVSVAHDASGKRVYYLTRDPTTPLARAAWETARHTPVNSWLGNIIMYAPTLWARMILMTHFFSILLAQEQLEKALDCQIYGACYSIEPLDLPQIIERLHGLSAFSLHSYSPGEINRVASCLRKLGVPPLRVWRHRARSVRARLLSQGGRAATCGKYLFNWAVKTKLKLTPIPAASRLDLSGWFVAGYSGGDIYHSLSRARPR

In the case of `COc1c(-c2ncc(-c3cccc([N+](=O)[O-])c3)o2)cc(N2CCC(=O)NC2=O)cc1C(C)(C)C` [IA-L0-1.10, 1-(3-tert-butyl-4-methoxy-5-(5-(3-nitrophenyl)oxazol-2-yl)phenyl)dihydropyrimidine-2,4(1H,3H)-dione], the IC50 in test [1] and in test [2] was over 1000 nM in each case.

Regarding `CC1CN(Cc2cc(N3CCC(=O)NC3=O)cc(C(C)(C)C)c2O)CC(C)O1` (stereo not shown) [IA-L5-1-1.13, 1-(3-tert-butyl-5-((2,6-dimethylmorpholino)methyl)-4-hydroxyphenyl)dihydro pyrimidine-2,4(1H,3H)-dione 2,2,2-trifluoroacetate], the IC50 in test [1] and in test [2] was over 1000 nM each time.

`CCCC(=O)OCN1C(=O)CCN(c2cc(C(=O)Nc3ccc(N(COC(=O)CCC)S(C)(=O)=O)cc3)c(OC)c(C(C)(C)C)c2)C1=O` [IA-L3-1.88, (N-(4-(3-tert-butyl-5-(3-(butyryloxymethyl)-2,4-dioxotetrahydropyrimidin-1(2H)-yl)-2-methoxybenzamido)phenyl)methylsulfonamido)methyl butyrate]: the IC50 in test [1] and in test [2] was over 1000 nM in each case.

On to `CC(C)(C)c1cc(N2CCC(=O)NC2=O)cc(CN2CCCc3cc(NS(C)(=O)=O)ccc32)c1O` [IA-L5-1-2.2, N-(1-(3-tert-butyl-5-(2,4-dioxotetrahydropyrimidin-1(2H)-yl)-2-hydroxybenzyl)-1,2,3,4-tetrahydroquinolin-6-yl)methanesulfonamide], for which the IC50 in test [1] and in test [2] was over 1000 nM each time.

Take `CC1CCCN(Cc2cc(N3CCC(=O)NC3=O)cc(C(C)(C)C)c2O)C1` (stereo not shown) [IA-L5-1-1.4, 1-[3-tert-butyl-4-hydroxy-5-(3-methyl-piperidin-1-ylmethyl)-phenyl]-dihydro-pyrimidine-2,4-dione; compound with trifluoroacetic acid]: the IC50 in test [1] and in test [2] was over 1000 nM each time.

As for `COc1c(C(=O)Nc2ccc(N(C(=O)C(C)C)S(C)(=O)=O)cc2)cc(N2CCC(=O)NC2=O)cc1C(C)(C)C` [IA-L3-1.72, 3-tert-butyl-5-(2,4-dioxotetrahydropyrimidin-1(2H)-yl)-2-methoxy-N-(4-(N-(methylsulfonyl)isobutyramido)phenyl)benzamide], the IC50 in test [1] and in test [2] was over 1000 nM throughout.

Turning to `COc1c(C(=O)Nc2ccc(N(COC(=O)C(C)(C)C)S(C)(=O)=O)cc2)cc(N2CCC(=O)N(COC(=O)C(C)(C)C)C2=O)cc1C(C)(C)C` [IA-L3-1.116, (3-(3-tert-butyl-4-methoxy-5-(4-(N-(pivaloyloxymethyl)methylsulfonamido)phenylcarbamoyl)phenyl)-2,6-dioxotetrahydropyrimidin-1(2H)-yl)methyl pivalate], the IC50 in test [1] and in test [2] was over 1000 nM throughout.

Turning to `COc1c(-c2nc3cc(N(S(C)(=O)=O)S(C)(=O)=O)ccc3[nH]2)cc(N2CCC(=O)NC2=O)cc1C(C)(C)C` [IA-L0-2.10, N-(2-(3-tert-butyl-5-(2,4-dioxotetrahydropyrimidin-1(2H)-yl)-2-methoxyphenyl)-1H-benzo[d]imidazol-5-yl)-N-(methylsulfonyl)methanesulfonamide], the IC50 in test [1] and in test [2] was over 1000 nM in each case.

`COc1c(C(=O)Nc2ccccc2S(C)(=O)=O)cc(N2CCC(=O)NC2=O)cc1C(C)(C)C` [IA-L3-1.79, 3-tert-butyl-5-(2,4-dioxotetrahydropyrimidin-1(2H)-yl)-2-methoxy-N-(2-(methylsulfonyl)phenyl)benzamide]: the IC50 in test [1] and in test [2] was over 1000 nM each time.

In the case of `CCOC(=O)CC(=O)c1ccc(NC(=O)c2cc(N3CCC(=O)NC3=O)cc(C(C)(C)C)c2OC)cc1` [IA-L3-1.43, ethyl 3-(4-(3-tert-butyl-5-(2,4-dioxotetrahydropyrimidin-1(2H)-yl)-2-methoxybenzamido)phenyl)-3-oxopropanoate], the half-inhibitory concentration (IC50) in test [1] and in test [2] was over 1000 nM in each case.

For the molecule `CC(C)(C)c1cc(N2CCC(=O)NC2=O)cc(CN2CCC(NS(C)(=O)=O)C2)c1O` (stereo not shown) [IA-L5-1-1.11, N-{1-[3-tert-butyl-5-(2,4-dioxo-tetrahydro-pyrimidin-1-yl)-2-hydroxy-benzyl]-pyrrolidin-3-yl}-methanesulfonamide], the IC50 in test [1] and in test [2] was over 1000 nM in each case.

In the case of `CCOC(=O)C1CCCN(Cc2cc(N3CCC(=O)NC3=O)cc(C(C)(C)C)c2O)C1` (stereo not shown) [IA-L5-1-1.3, 1-[3-tert-butyl-5-(2,4-dioxo-tetrahydro-pyrimidin-1-yl)-2-hydroxy-benzyl]-piperidine-3-carboxylic acid ethyl ester], the IC50 in test [1] and in test [2] was over 1000 nM throughout.

For `COc1c(C(=O)Nc2ccc(N(C(=O)OCC(C)C)S(C)(=O)=O)cc2)cc(N2CCC(=O)NC2=O)cc1C(C)(C)C` [IA-L3-1.76, Isobutyl 4-(3-tert-butyl-5-(2,4-dioxotetrahydropyrimidin-1(2H)-yl)-2-methoxybenzamido) phenyl(methylsulfonyl)carbamate], the IC50 in test [1] and in test [2] was over 1000 nM each time.

Turning to `COC(=O)Nc1ccc(NC(=O)c2cc(N3CCC(=O)NC3=O)cc(C(C)(C)C)c2OC)cc1` [IA-L3-1.49, Methyl 4-(3-tert-butyl-5-(2,4-dioxotetrahydropyrimidin-1(2H)-yl)-2-methoxybenzamido) phenylcarbamate], the IC50 in test [1] and in test [2] was over 1000 nM each time.

As to `COc1c(C(=O)Nc2ccc(N(COC(C)=O)S(C)(=O)=O)cc2)cc(N2CCC(=O)NC2=O)cc1C(C)(C)C`, the half-maximal inhibitory concentration (IC50) in test [1] was over 1000 nM; in test [2], 100 to 1000 nM.

For `CCN(Cc1cc(N2CCC(=O)NC2=O)cc(C(C)(C)C)c1O)C1CCCCC1` [IA-L9-1.1, 1-(3-tert-butyl-5-((cyclohexyl(ethyl)amino)methyl)-4-hydroxyphenyl)dihydropyrimidine-2,4(1H,3H)-dione 2,2,2-trifluoroacetate], the IC50 in test [1] and in test [2] was over 1000 nM each time.

On to `C=CCN1C(=O)CCN(c2cc(C(=O)Nc3ccc(N(CC=C)S(C)(=O)=O)cc3)c(OC)c(C(C)(C)C)c2)C1=O` [IA-L3-1.118, 5-(3-allyl-2,4-dioxotetrahydropyrimidin-1(2H)-yl)-N-(4-(N-allylmethylsulfonamido)phenyl)-3-tert-butyl-2-methoxybenzamide], for which the IC50 in test [1] and in test [2] was over 1000 nM in each case.

Turning to `CC(C)(C)c1cc(N2CCC(=O)NC2=O)cc(NC(=O)c2ccc(N)cc2)c1O` [IA-L4-1.6, 4-amino-N-(3-tert-butyl-5-(2,4-dioxotetrahydropyrimidin-1(2H)-yl)-2-hydroxyphenyl)benzamide], the IC50 in test [1] and in test [2] was over 1000 nM throughout.

For `CC(C)(C)c1cc(N2CCC(=O)NC2=O)cc(CN2CCCC(CNS(C)(=O)=O)C2)c1O` (stereo not shown) [IA-L5-1-1.2, N-{1-[3-tert-butyl-5-(2,4-dioxo-tetrahydro-pyrimidin-1-yl)-2-hydroxy-benzyl]-piperidin-3-ylmethyl}-methanesulfonamide], the 50% inhibitory concentration (IC50) in test [1] and in test [2] was over 1000 nM in each case.

For `CC(C)(C)c1cc(N2CCC(=O)NC2=O)cc(CN2CCC[C@@H](O)C2)c1O` [IA-L5-1-1.6, 1-[3-tert-butyl-4-hydroxy-5-((R)-3-hydroxy-piperidin-1-ylmethyl)-phenyl]-dihydro-pyrimidine-2,4-dione; compound with trifluoroacetic acid], the IC50 in test [1] and in test [2] was over 1000 nM in each case.

The values above are taken from patent US8415351B2 (priority 2007, dated 2013).
